Laboratory results taken from US12178210B2, “Insect attractant and killing system” (priority 2020, dated 2024).
Like-named read-outs stand apart in the source and are kept apart here.

Details: field, Córdoba, initial amount 15 g, UV8, 1.6 mm orifice
Method: The devices consisted of a pesticide coated insecticide transfer envelope (˜10 mg of deltamethrin) equipped with a hook containing an attractant lure on the inside of the envelope (see FIG. 3). Attractant lures inside Magnet™ ORO were labelled and individually weighed at different periods of time. Qualitative identity of the remaining material was assessed by means of FTIR and compared with standards. Each lure was constructed using polypropylene/calcium carbonate film (UV8) as the membrane and Scotchpak™ (3M) polyester laminate film as the impermeable barrier material and a 1.6 mm ( 1/16 in) diameter spherical punch in the impermeable layer exposing the membrane and an ˜8 mm ( 5/16 in) diameter heat seal around the circumference of the punch (referred to as a ring seal). Each prototype contained 15 g of ammonium carbonate as the volatile insect attractant.
The trials were performed in Córdoba, Spain June-November 2019 where the average temperatures (high/low) are 32/17° C. (90/62° F.) in June, 37/19° C. (98/67° F.) in July, 35/19° C. (95/66° F.) in August, 32/18° C. (90/64° F.) in September, 24/13° C. (76/55° F.) in October, and 18/8° C. (65/47° F.) in November.

N.N.O=C(O)O [Ammonium Carbonate, ammonium carbonate]
Average Mass Loss (day 0 (Jul. 22, 2019)): 0.0890 g/day | Average Mass Loss (day 9 (Jul. 31, 2019)): 0.1082 g/day | Average Mass Loss (day 21 (Aug. 12, 2019)): 0.0948 g/day | Average Mass Loss (day 28 (Aug. 19, 2019)): 0.0976 g/day | Average Mass Loss (day 45 (Sep. 5, 2019)): 0.0498 g/day | Average Mass Loss (day 57 (Sep. 17, 2019)): 0.0111 g/day | Average Mass Loss (day 72 (Oct. 2, 2019)): 0.0191 g/day | Average Mass Loss (day 80 (Oct. 10, 2019)): 0.0299 g/day | Average Mass Loss (day 91 (Oct. 21, 2019)): 0.0001 g/day | Average Mass Loss (day 105 (Nov. 4, 2019)): 0.0046 g/day
